Key:
Assay in all cases: relative viability (nuclei count vs DMSO), 5 days (fraction); higher = more cells survive
NCI-H1395 = tested on: NCI-H1395
In short: (§1)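 Lung cancer cell lines were pin-tool dosed in 1536-well plates on the day after seeding, with either a lone drug or a fixed anchor-drug dose plus five library-drug doses (not always all listed) in √10 steps. Nuclei were counted on 4× images after 5 days. Relative viability is the ratio of treated-well to vehicle-well nuclei counts, with each value a median of duplicate plates.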

NCI-H2405 = tested on: NCI-H2405
In short: as §1

HARA = tested on: HARA
In short: as §1

NCI-H1355 = tested on: NCI-H1355
In short: as §1

BEN = tested on: BEN
In short: as §1

NCI-H1437 = tested on: NCI-H1437
In short: as §1

HCC-827 = tested on: HCC-827
In short: as §1

NCI-H1792 = tested on: NCI-H1792
In short: as §1

NCI-H647 = tested on: NCI-H647
In short: as §1

NCI-H2087 = tested on: NCI-H2087
In short: as §1

NCI-H2009 = tested on: NCI-H2009
In short: as §1

NCI-H1993 = tested on: NCI-H1993
In short: as §1

NCI-H2170 = tested on: NCI-H2170
In short: as §1

NCI-H1734 = tested on: NCI-H1734
In short: as §1

SK-MES-1 = tested on: SK-MES-1
In short: as §1

HCC-366 = tested on: HCC-366
In short: as §1

SK-LU-1 = tested on: SK-LU-1
In short: as §1

EKVX = tested on: EKVX
In short: as §1

LOU-NH91 = tested on: LOU-NH91
In short: as §1

Which results are given for CC(=O)O[C@@]12CO[C@@H]1C[C@H](O)[C@@]1(C)C(=O)[C@H](O)C3=C(C)[C@@H](OC(=O)[C@H](O)[C@@H](NC(=O)OC(C)(C)C)c4ccccc4)C[C@@](O)([C@@H](OC(=O)c4ccccc4)[C@H]21)C3(C)C [Docetaxel] + CC1(C)CCC(c2ccc(Cl)cc2)=C(CN2CCN(c3ccc(C(=O)NS(=O)(=O)c4ccc(N[C@H](CCN5CCOCC5)CSc5ccccc5)c(S(=O)(=O)C(F)(F)F)c4)cc3)CC2)C1 [Navitoclax] (partner 0.5 µM)?
relative viability (NCI-H1395; first compound 0.0002 µM): 1.15; relative viability (NCI-H1395; first compound 0.000632 µM): 1.1; relative viability (NCI-H1395; first compound 0.002 µM): 0.895; relative viability (NCI-H1395; first compound 0.006325 µM): 0.394; relative viability (NCI-H1395; first compound 0.02 µM): 0.357; relative viability (NCI-H2405; first compound 0.0002 µM): 0.907; relative viability (NCI-H2405; first compound 0.000632 µM): 0.543; relative viability (NCI-H2405; first compound 0.002 µM): 0.313; relative viability (NCI-H2405; first compound 0.006325 µM): 0.203; relative viability (NCI-H2405; first compound 0.02 µM): 0.119; relative viability (HARA; first compound 0.0002 µM): 1.08; relative viability (HARA; first compound 0.000632 µM): 0.912; relative viability (HARA; first compound 0.002 µM): 0.156; relative viability (HARA; first compound 0.006325 µM): 0.107; relative viability (HARA; first compound 0.02 µM): 0.0621; relative viability (NCI-H1355; first compound 0.0002 µM): 0.901; relative viability (NCI-H1355; first compound 0.000632 µM): 0.77; relative viability (NCI-H1355; first compound 0.002 µM): 0.372; relative viability (NCI-H1355; first compound 0.006325 µM): 0.272; relative viability (NCI-H1355; first compound 0.02 µM): 0.175; relative viability (BEN; first compound 0.0002 µM): 0.0647; relative viability (BEN; first compound 0.000632 µM): 0.25; relative viability (BEN; first compound 0.002 µM): 0.0618; relative viability (BEN; first compound 0.006325 µM): 0.0423; relative viability (BEN; first compound 0.02 µM): 0.0454; relative viability (NCI-H1437; first compound 0.0002 µM): 1.02; relative viability (NCI-H1437; first compound 0.000632 µM): 0.644; relative viability (NCI-H1437; first compound 0.002 µM): 0.182; relative viability (NCI-H1437; first compound 0.02 µM): 0.104; relative viability (HCC-827; first compound 0.0002 µM): 1.02; relative viability (HCC-827; first compound 0.000632 µM): 1.02; relative viability (HCC-827; first compound 0.002 µM): 0.943; relative viability (HCC-827; first compound 0.006325 µM): 0.334; relative viability (HCC-827; first compound 0.02 µM): 0.252; relative viability (NCI-H1792; first compound 0.0002 µM): 0.441; relative viability (NCI-H1792; first compound 0.000632 µM): 0.614; relative viability (NCI-H1792; first compound 0.002 µM): 0.437; relative viability (NCI-H1792; first compound 0.02 µM): 0.0744; relative viability (NCI-H647; first compound 0.0002 µM): 1.21; relative viability (NCI-H647; first compound 0.000632 µM): 0.597; relative viability (NCI-H647; first compound 0.002 µM): 0.245; relative viability (NCI-H647; first compound 0.006325 µM): 0.125; relative viability (NCI-H647; first compound 0.02 µM): 0.0526; relative viability (NCI-H2087; first compound 0.0002 µM): 0.964; relative viability (NCI-H2087; first compound 0.000632 µM): 0.446; relative viability (NCI-H2087; first compound 0.002 µM): 0.276; relative viability (NCI-H2087; first compound 0.006325 µM): 0.154; relative viability (NCI-H2087; first compound 0.02 µM): 0.129; relative viability (NCI-H2009; first compound 0.0002 µM): 1.15; relative viability (NCI-H2009; first compound 0.000632 µM): 1.19; relative viability (NCI-H2009; first compound 0.002 µM): 0.892; relative viability (NCI-H2009; first compound 0.006325 µM): 0.575; relative viability (NCI-H2009; first compound 0.02 µM): 0.117; relative viability (NCI-H1993; first compound 0.0002 µM): 0.945; relative viability (NCI-H1993; first compound 0.000632 µM): 0.873; relative viability (NCI-H1993; first compound 0.002 µM): 0.703; relative viability (NCI-H1993; first compound 0.006325 µM): 0.554; relative viability (NCI-H1993; first compound 0.02 µM): 0.436; relative viability (NCI-H2170; first compound 0.0002 µM): 0.569; relative viability (NCI-H2170; first compound 0.000632 µM): 0.49; relative viability (NCI-H2170; first compound 0.002 µM): 0.237; relative viability (NCI-H2170; first compound 0.006325 µM): 0.213; relative viability (NCI-H2170; first compound 0.02 µM): 0.15; relative viability (NCI-H1734; first compound 0.0002 µM): 0.697; relative viability (NCI-H1734; first compound 0.000632 µM): 0.819; relative viability (NCI-H1734; first compound 0.002 µM): 0.323; relative viability (NCI-H1734; first compound 0.02 µM): 0.104; relative viability (SK-MES-1; first compound 0.0002 µM): 1.19; relative viability (SK-MES-1; first compound 0.000632 µM): 0.692; relative viability (SK-MES-1; first compound 0.002 µM): 0.251; relative viability (SK-MES-1; first compound 0.006325 µM): 0.122; relative viability (SK-MES-1; first compound 0.02 µM): 0.108; relative viability (HCC-366; first compound 0.0002 µM): 1.03; relative viability (HCC-366; first compound 0.000632 µM): 0.969; relative viability (HCC-366; first compound 0.002 µM): 0.0411; relative viability (HCC-366; first compound 0.006325 µM): 0.0211; relative viability (HCC-366; first compound 0.02 µM): 0.0135; relative viability (SK-LU-1; first compound 0.0002 µM): 0.721; relative viability (SK-LU-1; first compound 0.000632 µM): 0.454; relative viability (SK-LU-1; first compound 0.002 µM): 0.141; relative viability (SK-LU-1; first compound 0.006325 µM): 0.215; relative viability (SK-LU-1; first compound 0.02 µM): 0.112; relative viability (EKVX; first compound 0.0002 µM): 0.918; relative viability (EKVX; first compound 0.000632 µM): 0.847; relative viability (EKVX; first compound 0.002 µM): 0.37; relative viability (EKVX; first compound 0.006325 µM): 0.196; relative viability (EKVX; first compound 0.02 µM): 0.123; relative viability (LOU-NH91; first compound 0.0002 µM): 0.784; relative viability (LOU-NH91; first compound 0.000632 µM): 0.512; relative viability (LOU-NH91; first compound 0.002 µM): 0.332; relative viability (LOU-NH91; first compound 0.006325 µM): 0.279; relative viability (LOU-NH91; first compound 0.02 µM): 0.222

Source: the supplement of paper PMC10307832
